Experimental data as given in patent publication US9012178B2, “Dipeptides to enhance yield and viability from cell cultures” (Amgen Inc., priority 2010, dated 2015).
≈ marks a conversion by molar mass, not a printed value. Where a SMILES comes first, the peptide text is derived from it.

Experiments:
[1] = Solubility of tyrosine-containing dipeptides
[2] = reference #1; cited from earlier work
CHO cell line A = assay: Fed-batch shake flask production culture in serum-free defined medium: titer and viability; type: cell-based, Chinese hamster; details: culture period 13 to 14 days
Procedure: (§1) Materials and Methods: Dipeptides were purchased from Bachem (Torrance, Calif.). Each dipeptide was dissolved in water for preparation of concentrated stock solution (100 mg/mL), followed by sterile filtration using Spin-X® filter unit (Corning Inc., Corning, N.Y.).
(§2) On Day 0, prior to inoculation of production cell lines, appropriate volumes of concentrated dipeptide stock solution were added to serum-free defined production medium to bring the final dipeptide concentration at 0.5-2.0 g/L. For controls, the same volume of water was added. Cells were inoculated at 5×10^5 cells/mL with the final culture volume of 50 mL in 250 mL flasks. The shaker flasks cultures were grown in the incubator at 36° C., with 5% CO2 and agitation rate of 160 rpm.
(§3) Cultures were fed with bolus defined feed media on Days 3, 6, and 8 with the feed volume of 5-6% on Day 3, 9% on Day 6 and 9% on Day 8. Cultures were stopped and harvested on Day 11. However, if the culture viability on Day 11 was >70%, culture duration was extended beyond day 11 by introducing 4th feed on Day 11 and 5th feed on day 13 if necessary. Feed volume on Day 11 ranged from 5% to 8%, depending on the culture performance. Day 13 feed ranged from 2.5% to 3.0%. Glucose was fed as needed with typical target concentration of 7-8 g/L.
(§4) On selective days during the production run, small volumes of cultures were taken out to assess viable cell density and % viability using the CEDEX cell counter (Roche Innovatis AG). Titer was also determined on collected samples, using the high-throughput HPLC analytical method.
Materials and Methods: CHO cell line A was cultured as in Example 2. The effect of dipeptide Ala-His (added at 1 g/L) was compared to no added dipeptide (control) and dipeptide His-Gly. The culture period was 13 to 14 days, at which point titer and viability were assessed.

CHO cell line D = assay: 6-day batch culture in serum-free defined production medium: titer and viability; type: cell-based, Chinese hamster; details: 1 to 4 g/L, 6 days batch culture; for titer: over the negative control
Procedure: Materials and Methods: CHO cell line D, which produces a fully human recombinant antibody, was used for this experiment. Cells were inoculated at 2×10^6 cells/mL with a final culture volume of 2.0 mL into serum-free defined production medium. Experimental samples contained the dipeptides His-Glu, Glu-His, His-Ser, and His-Gln from 1 to 4 g/L. Control wells were set up containing either no added dipeptide as a negative control, or containing peptone at 10 g/L as a positive control. The cultures were incubated as a batch culture for 6 days, at which point the cells were harvested and titer and viability determined.

CHO cell line C = assay: Fed-batch shake flask production culture in serum-free defined medium: titer, viability, growth, metabolic profiles; type: cell-based, Chinese hamster; details: for day 11 titer: cell line C, culture period 11 days (Example 4, FIG. 5)
Procedure: as §1, §2, §3, §4
Materials and Methods: CHO cell line C was cultured as in Example 2. The dipeptides tested were Tyr-Lys, Thr-Phe, His-Gly, Tyr-Ala, Gly-His, Tyr-His, Tyr-Val, and a combination of Tyr-His and Thr-Phe. The culture period was 11 days, at which point titer and viability were assessed.
Materials and Methods: CHO cell line C was used for this experiment, and cultured as in Example 2. Titer, viability, viable cell density, specific productivity, and cell diameter were determined each day from day 6 to 13 or 14 of cell culture. Tyr-His dipeptide was tested at 0.5 g/L and 1 g/L, and compared to the addition of no dipeptide.

CHO cells = assay: Recombinant protein expression from CHO cells in chemically defined medium (summary statements); type: cell-based, Chinese hamster; details: two different CHO cell lines expressing two different recombinant antibodies
[3] = supplement by itself in serum-free, peptone-free production medium

| Molecule | viability (CHO cell line D) | titer (CHO cell line D) | day 11 titer (CHO cell line C) | further results |
| --- | --- | --- | --- | --- |
| CSCC[C@H](N)C(=O)N[C@@H](Cc1ccc(O)cc1)C(=O)O [Met-Tyr] (H-Met-Tyr-OH; N-terminus and C-terminus assumed) |  |  |  | Solubility tested [1]: Not soluble |
| N[C@@H](Cc1ccc(O)cc1)C(=O)N[C@@H](Cc1c[nH]cn1)C(=O)O [Tyr-His] (H-Tyr-His-OH; N-terminus and C-terminus assumed) |  |  |  | Solubility (g/L)- ref. #1 [2]: 100 g/L (≈ 314 mM); Solubility tested [1]: readily soluble |
| NCCCC[C@H](NC(=O)[C@@H](N)Cc1ccc(O)cc1)C(=O)O [Tyr-Lys] (H-Tyr-Lys-OH; N-terminus and C-terminus assumed) |  |  |  | Solubility (g/L)- ref. #1 [2]: 81 g/L (≈ 262 mM); Solubility tested [1]: readily soluble |
| Ala-His |  |  |  | viability (CHO cell line A; Ala-His added at 1 g/L): maintain increased viability; titer (CHO cell line A; Ala-His added at 1 g/L, vs control): also improved titer, but not as much as His-Gly |
| Glu-His | significantly improved | not significantly increased |  |  |
| Gly-His |  |  | adversely affected titer | productivity and culture performance (CHO cells): negative effect |
| His-Gln | significantly improved | not significantly increased |  |  |
| His-Glu | significantly improved | not significantly increased |  |  |
| His-Gly |  |  | moderately improved titer | viability (CHO cell line A; Ala-His added at 1 g/L): better at maintaining viability; titer improvement as compared to control (CHO cell line A): more than 10%; productivity and culture performance (CHO cells): improve productivity and culture performance |
| His-Ser | significantly improved | not significantly increased |  |  |
| Thr-Phe |  |  | little to no effect | recombinant protein production (CHO cell line C; [3]): little to no effect; viability (CHO cell line C; [3]): little to no effect |
| Tyr-Ala |  |  | significantly improved titer |  |
| Tyr-Val |  |  | significantly improved titer |  |
